Entries after “also recorded” stand apart in the source; their conditions may differ.
Columns and labels:
C57BL/6 mice = assay: EAE in C57BL/6 mice; type: in vivo; settings: 10 μg per mouse with MOG35-55 at induction and i.p. every 3 days
[1] = tested on: leptomeningeal phagocytes; assay: Transcriptional response of leptomeningeal phagocytes to LPS/IFNγ; type: cell-based, mouse; settings: LacCer 10 μM 1 h, LPS/IFNγ 6 h
Method: FIGS. 15a-b. […] Leptomeningeal phagocytes (a) and choroid plexus cells (b) were pre-treated for 1 h with LacCer (10 μM), or vehicle control (vehicle), followed by activation with LPS/IFNγ for 6 h, or left un-treated (control, Con). mRNA expression was determined by nCounter Nanostring analysis. Representative data of two independent experiments.
The meninges were carefully stripped from the brains of 1- to 3-day-old neonatal mice, and digested with 1% collagenase for 20 min at 37° C., and then dispersed into a single-cell level. Isolated cells, were incubated with anti-mouse CD16/CD32 for 15 min on ice to block the Fc receptors, and stained with APC-conjugated antibody for CD11b (M1/70) for 30 min at 4° C. Cells were washed, incubated with 7-AAD for exclusion of dead cells, and sorted.

inflammatory monocytes = assay: Recruitment of inflammatory monocytes to the CNS of EAE NOD mice (flow cytometry); type: in vivo, mouse; settings: PDMP as in FIG. 1k, CD11b+Ly6C^high or CD11b+CD45^high

| Molecule | EAE clinical scores (C57BL/6 mice) | transcriptional response to activation of leptomeningeal phagocytes [1] | frequency of inflammatory monocytes recruited to the CNS (inflammatory monocytes) | total numbers of inflammatory monocytes recruited to the CNS (inflammatory monocytes) |
| --- | --- | --- | --- | --- |
| lactosylceramide [LacCer] | significant worsening of EAE | did not affect the transcriptional response; also recorded: does not affect the transcriptional response | – | – |
| CCCCCCCCCC(=O)N[C@H](CN1CCOCC1)[C@H](O)c1ccccc1 [PDMP, D-threo-1-phenyl-2-decanoylamino-3-morpholino-1-propanol] | – | – | significantly reduced | significantly reduced |
